The record followed here is PMC10196118, “Evidence for broad cross-reactivity of the SARS-CoV-2 NSP12-directed CD4^+ T-cell response with pre-primed responses directed against common cold coronaviruses” (Frontiers in Immunology, 2023).

This assay deals with pre-cultured PBMCs (NSP12-specific T cells). In words: IFN-γ ELISpot with single 15-mer peptides after 11–13 days in vitro peptide-pool T-cell expansion. Conditions: for peptide-specific response, donor HH-N12-18, post COVID-19 / peptide-specific response, donor HH-N12-18, pre COVID-19 / peptide-specific response, donor HH-N12-34, post COVID-19 / peptide-specific response, donor HH-N12-34, pre COVID-19 / peptide-specific response, donor HH-N12-35, post COVID-19 / peptide-specific response, donor HH-N12-35, pre COVID-19 / peptide-specific response, donor HH-N12-36, post COVID-19 / peptide-specific response, donor HH-N12-36, pre COVID-19 / peptide-specific response, donor HH-N12-37, post COVID-19 / peptide-specific response, donor HH-N12-37, pre COVID-19: single NSP12 15-mer peptides. In kind it is cell-based, human.

Where [1] appears, read: donor HH-N12-18, sample post COVID-19.
Setting [2] is: donor HH-N12-18, sample pre COVID-19.
Where [3] appears, read: donor HH-N12-34, sample post COVID-19.
The mark [4] stands for this setting: donor HH-N12-34, sample pre COVID-19.
The mark [5] stands for this setting: donor HH-N12-35, sample post COVID-19.
The mark [6] stands for this setting: donor HH-N12-35, sample pre COVID-19.
The mark [7] stands for this setting: donor HH-N12-36, sample post COVID-19.
The mark [8] stands for this setting: donor HH-N12-36, sample pre COVID-19.
[9] abbreviates: donor HH-N12-37, sample post COVID-19.
Where [10] appears, read: donor HH-N12-37, sample pre COVID-19.

Regarding TSTDVVYRAFDIYND [compound 6], the “peptide-specific response, donor HH-N12-18, post COVID-19” value under setting [1] stood at 0. Further, the “peptide-specific response, donor HH-N12-18, pre COVID-19” value under setting [2] is on record as 0. Further, the “peptide-specific response, donor HH-N12-34, post COVID-19” value under setting [3] turned out to be 0. Also, the “peptide-specific response, donor HH-N12-34, pre COVID-19” value under setting [4] is given as 0. Besides, the “peptide-specific response, donor HH-N12-35, post COVID-19” value under setting [5] was determined as 0. In addition, the “peptide-specific response, donor HH-N12-35, pre COVID-19” value under setting [6] was 0. The “peptide-specific response, donor HH-N12-36, post COVID-19” value under setting [7] is listed as 0. Besides, under setting [8], the “peptide-specific response, donor HH-N12-36, pre COVID-19” value is recorded as 0. Also, the “peptide-specific response, donor HH-N12-37, post COVID-19” value under setting [9] is on record as 0. Also, under setting [10], the “peptide-specific response, donor HH-N12-37, pre COVID-19” value is recorded as 0.
As to VAKHDFFKFRIDGDM [compound 20], under setting [1], the “peptide-specific response, donor HH-N12-18, post COVID-19” value was determined as 0. Also, the “peptide-specific response, donor HH-N12-18, pre COVID-19” value under setting [2] is on record as 0. Under setting [3], the “peptide-specific response, donor HH-N12-34, post COVID-19” value is given as 0. Also, the “peptide-specific response, donor HH-N12-34, pre COVID-19” value under setting [4] amounted to 0. In addition, the “peptide-specific response, donor HH-N12-35, post COVID-19” value under setting [5] was 0. Moreover, the “peptide-specific response, donor HH-N12-35, pre COVID-19” value under setting [6] turned out to be 0. Further, the “peptide-specific response, donor HH-N12-36, post COVID-19” value under setting [7] stood at 0. Under setting [8], the “peptide-specific response, donor HH-N12-36, pre COVID-19” value stood at 0. Besides, under setting [9], the “peptide-specific response, donor HH-N12-37, post COVID-19” value was 0. In addition, the “peptide-specific response, donor HH-N12-37, pre COVID-19” value under setting [10] worked out at 0.
On to VASIKNFKSVLYYQN [compound 156], for which the “peptide-specific T-cell response, donor HH-N12-18, post COVID-19” value (donor HH-N12-18, sample post COVID-19, single NSP12 15-mer peptide, 0 = no response) is listed as 0. Moreover, under “donor HH-N12-18, sample pre COVID-19, single NSP12 15-mer peptide, 0 = no response”, the “peptide-specific T-cell response, donor HH-N12-18, pre COVID-19” value amounted to 0. For the same sequence, the “peptide-specific T-cell response, donor HH-N12-34, post COVID-19” value (donor HH-N12-34, sample post COVID-19, single NSP12 15-mer peptide, 0 = no response) was found to be 0.025. Besides, where the note is “donor HH-N12-34, sample pre COVID-19, single NSP12 15-mer peptide, 0 = no response”, the “peptide-specific T-cell response, donor HH-N12-34, pre COVID-19” value is given as 0. Besides, the “peptide-specific T-cell response, donor HH-N12-35, post COVID-19” value (donor HH-N12-35, sample post COVID-19, single NSP12 15-mer peptide, 0 = no response) is on record as 0. In addition, the “peptide-specific T-cell response, donor HH-N12-35, pre COVID-19” value (donor HH-N12-35, sample pre COVID-19, single NSP12 15-mer peptide, 0 = no response) is recorded as 0. The “peptide-specific T-cell response, donor HH-N12-36, post COVID-19” value (donor HH-N12-36, sample post COVID-19, single NSP12 15-mer peptide, 0 = no response) is given as 0. The “peptide-specific T-cell response, donor HH-N12-36, pre COVID-19” value (donor HH-N12-36, sample pre COVID-19, single NSP12 15-mer peptide, 0 = no response) worked out at 0. In addition, the “peptide-specific T-cell response, donor HH-N12-37, post COVID-19” value (donor HH-N12-37, sample post COVID-19, single NSP12 15-mer peptide, 0 = no response) came to 0. Moreover, the “peptide-specific T-cell response, donor HH-N12-37, pre COVID-19” value (donor HH-N12-37, sample pre COVID-19, single NSP12 15-mer peptide, 0 = no response) turned out to be 0.
As to VPVVDSYYSLLMPIL [compound 47], the “peptide-specific response, donor HH-N12-18, post COVID-19” value under setting [1] is listed as 0.082. Also, the “peptide-specific response, donor HH-N12-18, pre COVID-19” value under setting [2] was found to be 0. The “peptide-specific response, donor HH-N12-34, post COVID-19” value under setting [3] turned out to be 0. In addition, the “peptide-specific response, donor HH-N12-34, pre COVID-19” value under setting [4] was 0. Besides, the “peptide-specific response, donor HH-N12-35, post COVID-19” value under setting [5] was 0.02. Under setting [6], the “peptide-specific response, donor HH-N12-35, pre COVID-19” value was 0. In addition, under setting [7], the “peptide-specific response, donor HH-N12-36, post COVID-19” value turned out to be 0. Also, under setting [8], the “peptide-specific response, donor HH-N12-36, pre COVID-19” value is reported as 0. Moreover, the “peptide-specific response, donor HH-N12-37, post COVID-19” value under setting [9] was determined as 0. In addition, the “peptide-specific response, donor HH-N12-37, pre COVID-19” value under setting [10] was found to be 0.
On to VVKRHTFSNYQHEET [compound 15], for which the “peptide-specific response, donor HH-N12-18, post COVID-19” value under setting [1] is listed as 0. In addition, under setting [2], the “peptide-specific response, donor HH-N12-18, pre COVID-19” value turned out to be 0. Further, the “peptide-specific response, donor HH-N12-34, post COVID-19” value under setting [3] was 0. The “peptide-specific response, donor HH-N12-34, pre COVID-19” value under setting [4] was 0. Under setting [5], the “peptide-specific response, donor HH-N12-35, post COVID-19” value is given as 0. Also, the “peptide-specific response, donor HH-N12-35, pre COVID-19” value under setting [6] was determined as 0. Moreover, under setting [7], the “peptide-specific response, donor HH-N12-36, post COVID-19” value stood at 0. Also, the “peptide-specific response, donor HH-N12-36, pre COVID-19” value under setting [8] came out at 0. Moreover, under setting [9], the “peptide-specific response, donor HH-N12-37, post COVID-19” value is recorded as 0. In addition, the “peptide-specific response, donor HH-N12-37, pre COVID-19” value under setting [10] is 0.
For VYRAFDIYNDKVAGF [compound 7], the “peptide-specific response, donor HH-N12-18, post COVID-19” value under setting [1] stood at 0. For the same sequence, the “peptide-specific response, donor HH-N12-18, pre COVID-19” value under setting [2] is on record as 0. Moreover, the “peptide-specific response, donor HH-N12-34, post COVID-19” value under setting [3] is given as 0. The “peptide-specific response, donor HH-N12-34, pre COVID-19” value under setting [4] is recorded as 0. Also, the “peptide-specific response, donor HH-N12-35, post COVID-19” value under setting [5] came out at 0. Further, the “peptide-specific response, donor HH-N12-35, pre COVID-19” value under setting [6] is listed as 0. The “peptide-specific response, donor HH-N12-36, post COVID-19” value under setting [7] is on record as 0. Also, under setting [8], the “peptide-specific response, donor HH-N12-36, pre COVID-19” value was 0. Further, the “peptide-specific response, donor HH-N12-37, post COVID-19” value under setting [9] was found to be 0. Besides, the “peptide-specific response, donor HH-N12-37, pre COVID-19” value under setting [10] is given as 0.
In the case of WYDFGDFIQTTPGSG [compound 44], the “peptide-specific response, donor HH-N12-18, post COVID-19” value under setting [1] was found to be 0. Also, the “peptide-specific response, donor HH-N12-18, pre COVID-19” value under setting [2] turned out to be 0. In addition, the “peptide-specific response, donor HH-N12-34, post COVID-19” value under setting [3] is 0. The “peptide-specific response, donor HH-N12-34, pre COVID-19” value under setting [4] was 0. The “peptide-specific response, donor HH-N12-35, post COVID-19” value under setting [5] was determined as 0. For the same sequence, the “peptide-specific response, donor HH-N12-35, pre COVID-19” value under setting [6] was 0. The “peptide-specific response, donor HH-N12-36, post COVID-19” value under setting [7] came out at 0. Also, the “peptide-specific response, donor HH-N12-36, pre COVID-19” value under setting [8] was 0. The “peptide-specific response, donor HH-N12-37, post COVID-19” value under setting [9] was found to be 0. In addition, the “peptide-specific response, donor HH-N12-37, pre COVID-19” value under setting [10] came out at 0.05.
Turning to YFKYWDQTYHPNCVN [compound 58], the “peptide-specific response, donor HH-N12-18, post COVID-19” value under setting [1] is on record as 0. For the same sequence, the “peptide-specific response, donor HH-N12-18, pre COVID-19” value under setting [2] came to 0. In addition, under setting [3], the “peptide-specific response, donor HH-N12-34, post COVID-19” value was 0. Under setting [4], the “peptide-specific response, donor HH-N12-34, pre COVID-19” value came to 0. The “peptide-specific response, donor HH-N12-35, post COVID-19” value under setting [5] amounted to 0. Moreover, the “peptide-specific response, donor HH-N12-35, pre COVID-19” value under setting [6] is 0. For the same sequence, the “peptide-specific response, donor HH-N12-36, post COVID-19” value under setting [7] amounted to 0. Further, the “peptide-specific response, donor HH-N12-36, pre COVID-19” value under setting [8] stood at 0.041. For the same sequence, the “peptide-specific response, donor HH-N12-37, post COVID-19” value under setting [9] is 0. Also, the “peptide-specific response, donor HH-N12-37, pre COVID-19” value under setting [10] is 0.11.
For YSDVENPHLMGWDYP [compound 122], the “peptide-specific response, donor HH-N12-18, post COVID-19” value under setting [1] is listed as 0. Moreover, under setting [2], the “peptide-specific response, donor HH-N12-18, pre COVID-19” value is on record as 0. In addition, the “peptide-specific response, donor HH-N12-34, post COVID-19” value under setting [3] came to 0. Moreover, the “peptide-specific response, donor HH-N12-34, pre COVID-19” value under setting [4] is reported as 0. In addition, under setting [5], the “peptide-specific response, donor HH-N12-35, post COVID-19” value is listed as 0. Further, under setting [6], the “peptide-specific response, donor HH-N12-35, pre COVID-19” value came out at 0. Further, under setting [7], the “peptide-specific response, donor HH-N12-36, post COVID-19” value is given as 0. The “peptide-specific response, donor HH-N12-36, pre COVID-19” value under setting [8] amounted to 0. The “peptide-specific response, donor HH-N12-37, post COVID-19” value under setting [9] stood at 0. Besides, under setting [10], the “peptide-specific response, donor HH-N12-37, pre COVID-19” value worked out at 0.
